Data as given in PMC9697131, “Agomelatine, Ketamine and Vortioxetine Attenuate Energy Cell Metabolism—In Vitro Study” (International Journal of Molecular Sciences, 2022).

What was measured:
[1] = tested on: complex I-linked respiration, pig brain mitochondria; assay: Complex I-linked mitochondrial respiration, high-resolution respirometry; format: biochemical; details: for effect on complex I-linked respiration (in words): titration 0.125–100 µM
Method: (§1) Pig brains were obtained from a slaughterhouse. Mitochondrial fraction isolation and purification from brain cortex were performed as previously described. Briefly, grey matter from pig brains was homogenized and crude mitochondrial fraction was isolated and then centrifuged on the sucrose gradient to obtain purified mitochondrial fraction. The freshly purified mitochondria were kept on ice until the assays were performed and were used for measurements of the mitochondrial oxygen consumption rate, measurements of ATP and ROS formation. Frozen mitochondria (stored at −70 °C) were used for the following enzyme activity measurements: ETC complexes, citrate synthase (CS) and malate dehydrogenase (MDH) activity.
The mitochondrial oxygen consumption rate was measured by high-resolution respirometry using Oxygraph-2k (Oroboros Instruments Corp, Innsbruck, Austria). The final protein concentration was 0.05–0.14 mg/mL and the reaction mixture consisted of 2 mM malate, 5 mM pyruvate, 1.25 mM ADP and […] for complex I-linked respiration; 1.25 mM ADP, 0.75 mM MgCl2, 1 µM rotenone and 10 mM succinate for complex II-linked respiration. The following […] simultaneous measurements were assessed: a titration with the drug to the final drug concentrations of 0.125–100 µM in one chamber and a titration with a drug-free control (DMSO) in the second oxygraph chamber.
The respiration rate was expressed as pmol O2 consumed/second/mg of a protein.
The inhibition of respiration rate and MAO activity were analyzed by A four-parameter logistic regression with Prism software (GraphPad Software, San Diego, CA, USA) was used to analyze the respiratory rate inhibition and activity of MAO. […] The IC50 represents the drug concentration required to inhibit the difference between the baseline and the residual value of the mitochondrial oxygen flux or MAO activity by 50%.

[2] = tested on: complex II+III-linked ATP kinetics, pig brain mitochondria; assay: Complex II+III-linked ATP kinetics, bioluminescence; format: biochemical; details: 10 μM drug; mean ± SD
Method: as §1
The following protocol has been modified and optimized. An ATP Bioluminescence Assay Kit CLS II was used to measure ATP content and kinetics. The luminescence was measured using FluoroMax-3 (Jobin Yvon, Edison, NJ, USA) at 562 nm. Standard curve for ATP determination was prepared from ATP standard in the range from 0 to 600 nM. […]
For ATP kinetics determination MiR05 buffer, mitochondria and drugs were incubated on ice for 20 min and another 10 min at room temperature. Background luminescence was measured. Consequently, the same substrate mixture as mentioned above, and 230 µL of luciferase reagent were added and ATP kinetics was determined by measuring the luminescence for 4 min. […]

SMILES	effect on complex I-linked respiration (in words) [1]	complex II+III-linked ATP kinetics (relative to control = 100%) [2] [%]	complex I-linked respiration rate (relative to control = 100%) ([1]; 50 μM drug, mean ± SD) [%]	residual activity of complex I-linked respiration ([1]; four-parameter logistic fit, mean ± SEM) [%]	IC50 ([1]; four-parameter logistic fit, mean ± SEM, listed as VOR) [µM]
COc1ccc2cccc(CCNC(C)=O)c2c1 [agomelatine]	did not affect complex I-linked respiration at all	–	–	–	–
CNC1(c2ccccc2Cl)CCCCC1=O (stereo not shown) [ketamine]	inhibited complex I-linked respiration very weakly	84.9 ± 5.9	–	–	–
Cc1ccc(Sc2ccccc2N2CCNCC2)c(C)c1 [vortioxetine]	full inhibitor of complex I-linked respiration	–	22.5 ± 7.1	4.7	10.5
